A short description of one assay: Antagonist activity against CRTh2 receptor in human eosinophils assessed as cell shape change by flow cytometry.
On to `CCN(Cc1cc(-c2ccc(F)cn2)ccc1-c1cc(CC(=O)O)ccc1OC)C(=O)C1CC1` [2-(2'-((N-ethylcyclopropanecarboxamido)methyl)-4'-(5-fluoropyridin-2-yl)-6-methoxybiphenyl-3-yl)acetic acid], for which the IC50 turned out to be 23 nM. Regarding `CCN(Cc1cc(-c2cnn(C)c2)ccc1-c1cc(CC(=O)O)ccc1OC)C(=O)C1CC1` [2-(2'-((N-ethylcyclopropanecarboxamido)methyl)-6-methoxy-4'-(1-methyl-1H-pyrazol-4-yl)biphenyl-3-yl)acetic acid], the IC50 was found to be 4 nM. On the same count and under the same terms, with `CCN(Cc1cc(-c2cnc3ccccc3c2)ccc1-c1cc(CC(=O)O)ccc1OC)C(=O)C1CC1` [2-(2'-((N-ethylcyclopropanecarboxamido)methyl)-6-methoxy-4'-(quinolin-3-yl)biphenyl-3-yl)acetic acid] the figure was 12 nM. Same read-out and setting: with `CCOc1ccc(-c2ccc(-c3cc(CC(=O)O)ccc3OC)c(CN(CC)C(=O)C3CC3)c2)cn1` [Sodium [2'-[(cyclopropanecarbonyl-ethyl-amino)-methyl]-4'-(6-ethoxy-pyridin-3-yl)-6-methoxy-biphenyl-3-yl]-acetate] the figure was 5 nM; with `CCN(Cc1cc(-c2ncc(OC)cn2)ccc1-c1cc(CC(=O)O)ccc1OC)C(=O)C1CC1` [2-(2'-((N-ethylcyclopropanecarboxamido)methyl)-6-methoxy-4'-(5-methoxypyrimidin-2-yl)biphenyl-3-yl)acetic acid], 18 nM.

A short description of another assay: Antagonist activity against CRTh2 receptor in human eosinophils assessed as cell shape change after 4 hrs by flow cytometry.
Turning to `CCOc1ccc(-c2ccc(-c3cc(CC(=O)O)ccc3OC)c(CN(CC)C(=O)C3CC3)c2)cn1` [Sodium [2'-[(cyclopropanecarbonyl-ethyl-amino)-methyl]-4'-(6-ethoxy-pyridin-3-yl)-6-methoxy-biphenyl-3-yl]-acetate], the IC50 turned out to be 1.7 nM.

The record behind these values is BindingDB's records for doi:10.1016/j.bmcl.2010.12.016 (Amira Pharmaceuticals, 2011).
